From PubChem BioAssay (NCI)
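Protocol summary: plate cells (96-well), add compound at 5 concentrations, incubate 48 h, interpolate endpoints linearly. GI50 marks 50% less growth. Definition used: TGI = concentration required for complete inhibition of growth.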

Tests used:
Test in all cases: inhibition of tumour cell growth, NCI panel, 48 h
786-0 renal = system: 786-0 renal
A498 renal = system: A498 renal
ACHN renal = system: ACHN renal
BT-549 breast = system: BT-549 breast
CCRF-CEM leukemia = system: CCRF-CEM leukemia
COLO 205 colon = system: COLO 205 colon
DU-145 prostate = system: DU-145 prostate
EKVX NSCLC = system: EKVX NSCLC
HCC-2998 colon = system: HCC-2998 colon
HCT-116 colon = system: HCT-116 colon
HCT-15 colon = system: HCT-15 colon
HOP-62 NSCLC = system: HOP-62 NSCLC
HS 578T breast = system: HS 578T breast
K-562 leukemia = system: K-562 leukemia
KM12 colon = system: KM12 colon
M14 melanoma = system: M14 melanoma
MDA-MB-435 = system: MDA-MB-435
MOLT-4 leukemia = system: MOLT-4 leukemia
NCI-H226 lung = system: NCI-H226 lung
NCI-H460 lung = system: NCI-H460 lung
NCI-H522 lung = system: NCI-H522 lung
OVCAR-3 ovarian = system: OVCAR-3 ovarian
OVCAR-4 ovarian = system: OVCAR-4 ovarian
OVCAR-5 ovarian = system: OVCAR-5 ovarian
OVCAR-8 ovarian = system: OVCAR-8 ovarian
PC-3 prostate = system: PC-3 prostate
RPMI-8226 leukemia = system: RPMI-8226 leukemia
RXF 393 renal = system: RXF 393 renal
SF-295 CNS = system: SF-295 CNS
SK-MEL-28 melanoma = system: SK-MEL-28 melanoma
SK-MEL-5 melanoma = system: SK-MEL-5 melanoma
SK-OV-3 ovarian = system: SK-OV-3 ovarian
SNB-19 CNS = system: SNB-19 CNS
SNB-75 CNS = system: SNB-75 CNS
SW-620 colon = system: SW-620 colon
T-47D breast = system: T-47D breast
TK-10 renal = system: TK-10 renal
UACC-257 melanoma = system: UACC-257 melanoma
UO-31 renal = system: UO-31 renal

Cc1cc(N2CCCCC2)nc(NC2CCCC(Nc3ccnc4cc(Cl)ccc34)C2)n1 (stereo unspecified)
GI50 (786-0 renal): 1.27 µM
TGI (786-0 renal): 2.59 µM
GI50 (A498 renal): 1.67 µM
TGI (A498 renal): 3.42 µM
GI50 (ACHN renal): 1.54 µM
TGI (ACHN renal): 2.98 µM
GI50 (BT-549 breast): 1.58 µM
TGI (BT-549 breast): 3.07 µM
GI50 (CCRF-CEM leukemia): 1.48 µM
TGI (CCRF-CEM leukemia): 10.6 µM
GI50 (COLO 205 colon): 1.44 µM
TGI (COLO 205 colon): 2.98 µM
GI50 (DU-145 prostate): 1.45 µM
TGI (DU-145 prostate): 3.1 µM
GI50 (EKVX NSCLC): 1.54 µM
TGI (EKVX NSCLC): 3.54 µM
GI50 (HCC-2998 colon): 1.75 µM
TGI (HCC-2998 colon): 3.4 µM
GI50 (HCT-116 colon): 1.02 µM
TGI (HCT-116 colon): 2.21 µM
GI50 (HCT-15 colon): 0.825 µM
TGI (HCT-15 colon): 2.17 µM
GI50 (HOP-62 NSCLC): 1.46 µM
TGI (HOP-62 NSCLC): 2.91 µM
GI50 (HS 578T breast): 1.55 µM
TGI (HS 578T breast): 3.95 µM
GI50 (K-562 leukemia): 0.316 µM
TGI (K-562 leukemia): 1.23 µM
GI50 (KM12 colon): 1.79 µM
TGI (KM12 colon): 3.52 µM
GI50 (M14 melanoma): 1.66 µM
TGI (M14 melanoma): 3.29 µM
GI50 (MDA-MB-435): 1.32 µM
TGI (MDA-MB-435): 2.73 µM
GI50 (MOLT-4 leukemia): 1.21 µM
TGI (MOLT-4 leukemia): 3.7 µM
GI50 (NCI-H226 lung): 1.99 µM
TGI (NCI-H226 lung): 3.9 µM
GI50 (NCI-H460 lung): 1.39 µM
TGI (NCI-H460 lung): 2.86 µM
GI50 (NCI-H522 lung): 1.95 µM
TGI (NCI-H522 lung): 3.75 µM
GI50 (OVCAR-3 ovarian): 1.63 µM
TGI (OVCAR-3 ovarian): 3.42 µM
GI50 (OVCAR-4 ovarian): 1.4 µM
TGI (OVCAR-4 ovarian): 3.29 µM
GI50 (OVCAR-5 ovarian): 1.88 µM
TGI (OVCAR-5 ovarian): 4.84 µM
GI50 (OVCAR-8 ovarian): 1.73 µM
TGI (OVCAR-8 ovarian): 3.27 µM
GI50 (PC-3 prostate): 1.29 µM
TGI (PC-3 prostate): 2.86 µM
GI50 (RPMI-8226 leukemia): 0.472 µM
TGI (RPMI-8226 leukemia): 2.56 µM
GI50 (RXF 393 renal): 1.12 µM
TGI (RXF 393 renal): 2.47 µM
GI50 (SF-295 CNS): 1.52 µM
TGI (SF-295 CNS): 2.92 µM
GI50 (SK-MEL-28 melanoma): 1.8 µM
TGI (SK-MEL-28 melanoma): 3.39 µM
GI50 (SK-MEL-5 melanoma): 1.64 µM
TGI (SK-MEL-5 melanoma): 3 µM
GI50 (SK-OV-3 ovarian): 1.65 µM
TGI (SK-OV-3 ovarian): 3.17 µM
GI50 (SNB-19 CNS): 1.58 µM
TGI (SNB-19 CNS): 3.44 µM
GI50 (SNB-75 CNS): 1.39 µM
TGI (SNB-75 CNS): 3.18 µM
GI50 (SW-620 colon): 1.49 µM
TGI (SW-620 colon): 3.14 µM
GI50 (T-47D breast): 1.51 µM
TGI (T-47D breast): 4.07 µM
GI50 (TK-10 renal): 2.07 µM
TGI (TK-10 renal): 4.25 µM
GI50 (UACC-257 melanoma): 1.92 µM
TGI (UACC-257 melanoma): 3.55 µM
GI50 (UO-31 renal): 1.2 µM
TGI (UO-31 renal): 2.48 µM

C#CC[C@@H]1C[C@]2(C)[C@H]3CC[C@@H]4[C@H]5C(C(=C)C)CC[C@]5(C(=O)NCCCCCCCCN)CC[C@@]4(C)[C@]3(C)CC[C@H]2C(C)(C)[C@H]1OC(C)=O (stereo partly specified)
GI50 (A498 renal): 2.25 µM
TGI (A498 renal): 5.35 µM
GI50 (KM12 colon): 1.73 µM
TGI (KM12 colon): 3.22 µM
GI50 (SW-620 colon): 1.71 µM
TGI (SW-620 colon): 3.31 µM
GI50 (UO-31 renal): 1.46 µM
TGI (UO-31 renal): 2.84 µM
